Here are results for 1 compound from ChEMBL document CHEMBL4428063, “Novel Pyrimidine Toll-like Receptor 7 and 8 Dual Agonists to Treat Hepatitis B Virus” (J Med Chem, 2016).

Calls of active or inactive are those of the source. No cut-off for these calls is given here.

The target of data set [1] is T1, Toll-like receptor 8 (Homo sapiens) (UniProt Q9NR97).
T1 sequence (whole entry): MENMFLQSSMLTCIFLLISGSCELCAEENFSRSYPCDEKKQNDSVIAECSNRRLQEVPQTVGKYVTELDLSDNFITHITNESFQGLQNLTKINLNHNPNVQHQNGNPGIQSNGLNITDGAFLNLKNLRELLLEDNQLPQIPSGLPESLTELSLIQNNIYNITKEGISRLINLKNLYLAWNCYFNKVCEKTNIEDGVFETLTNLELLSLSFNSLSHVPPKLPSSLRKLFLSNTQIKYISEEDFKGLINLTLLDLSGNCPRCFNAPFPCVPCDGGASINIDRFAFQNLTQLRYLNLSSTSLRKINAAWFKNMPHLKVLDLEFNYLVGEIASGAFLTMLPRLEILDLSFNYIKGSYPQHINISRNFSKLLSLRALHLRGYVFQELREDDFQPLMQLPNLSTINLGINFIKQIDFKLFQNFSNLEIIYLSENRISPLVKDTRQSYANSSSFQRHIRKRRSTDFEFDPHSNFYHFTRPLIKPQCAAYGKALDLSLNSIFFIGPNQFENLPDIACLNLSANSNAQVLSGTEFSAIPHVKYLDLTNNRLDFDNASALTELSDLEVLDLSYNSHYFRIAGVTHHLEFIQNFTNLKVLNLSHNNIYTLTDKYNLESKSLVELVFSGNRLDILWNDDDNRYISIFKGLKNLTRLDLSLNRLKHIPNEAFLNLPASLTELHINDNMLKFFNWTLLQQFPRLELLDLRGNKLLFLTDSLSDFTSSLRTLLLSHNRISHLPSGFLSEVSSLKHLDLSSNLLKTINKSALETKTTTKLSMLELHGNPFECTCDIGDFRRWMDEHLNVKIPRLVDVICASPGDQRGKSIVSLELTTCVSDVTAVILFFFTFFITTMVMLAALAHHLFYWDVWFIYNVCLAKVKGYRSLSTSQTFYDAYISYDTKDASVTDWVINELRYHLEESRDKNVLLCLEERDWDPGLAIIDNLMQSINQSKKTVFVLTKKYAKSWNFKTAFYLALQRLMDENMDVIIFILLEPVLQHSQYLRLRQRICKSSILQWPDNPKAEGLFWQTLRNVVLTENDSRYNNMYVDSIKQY
The data set is described as follows: Agonist activity at human TLR8 expressed in HEK293 cells assessed as measured after 6 hrs by NF-kappaB luciferase reporter gene assay. The data set is classed as cell-based.

Data set [2] in a line: Fraction absorbed in Sprague-Dawley rat plasma at 10 mg/kg, po. The data set is classed as ADME, organism-based. The following applies: read-out: Fabs.
Data set [3] in a line: Tmax in Sprague-Dawley rat plasma at 10 mg/kg, po. The data set is classed as ADME, organism-based.
Data set [4] is described as follows: Tmax in C57Bl/6 mouse at 1 to 50 mg/kg, po. The following applies: in vivo. The data set is classed as ADME, organism-based.
Data set [5] can be described thus: Intrinsic clearance in C57Bl/6 mouse liver microsomes assessed per mg protein at 1 uM measured after 60 mins. The data set is classed as ADME, Microsome. The following applies: read-out: CLH. (Microsomes from liver hold many membrane-bound enzymes, among them those of drug oxidation.)
A short description of data set [6]: Intrinsic clearance in C57Bl/6 mouse hepatocytes at 1 uM measured after 120 mins. The data set is classed as ADME, cell-based, Hepatocyte. The following applies: 2 h.
A short description of data set [7]: Plasma concentration in C57Bl/6 mouse infected with HBV genotype D at 5 mg/kg, po dosed once per week for 8 weeks administered 6 weeks after viral infection and measured on day 42 post 1 hr of dosage. The data set is classed as ADME, organism-based. Particulars: in vivo.
A short description of data set [8]: AUC(0 to last) in cynomolgus monkey plasma at 3 mg/kg, administered through oral gavage measured after 24 hrs. The data set is classed as ADME, organism-based, Macaca fascicularis. Also on record: dose 3 mg/kg, time 0 - last, route oral.
A short description of data set [9]: Tmax in cynomolgus monkey plasma at 9 mg/kg, administered through oral gavage measured after 24 hrs. The data set is classed as ADME, organism-based, Macaca fascicularis.
A further data set has as its system human MDR1. In words: Apparent permeability across apical to basolateral side in MDCK cells expressing human MDR1 at 1 uM by LC-MS/MS analysis. The data set is classed as ADME, cell-based, Canis lupus familiaris. The following applies: dog.
The target of data set [10] is T2, Toll-like receptor 7 (Homo sapiens) (UniProt Q9NYK1).
T2 sequence (whole entry): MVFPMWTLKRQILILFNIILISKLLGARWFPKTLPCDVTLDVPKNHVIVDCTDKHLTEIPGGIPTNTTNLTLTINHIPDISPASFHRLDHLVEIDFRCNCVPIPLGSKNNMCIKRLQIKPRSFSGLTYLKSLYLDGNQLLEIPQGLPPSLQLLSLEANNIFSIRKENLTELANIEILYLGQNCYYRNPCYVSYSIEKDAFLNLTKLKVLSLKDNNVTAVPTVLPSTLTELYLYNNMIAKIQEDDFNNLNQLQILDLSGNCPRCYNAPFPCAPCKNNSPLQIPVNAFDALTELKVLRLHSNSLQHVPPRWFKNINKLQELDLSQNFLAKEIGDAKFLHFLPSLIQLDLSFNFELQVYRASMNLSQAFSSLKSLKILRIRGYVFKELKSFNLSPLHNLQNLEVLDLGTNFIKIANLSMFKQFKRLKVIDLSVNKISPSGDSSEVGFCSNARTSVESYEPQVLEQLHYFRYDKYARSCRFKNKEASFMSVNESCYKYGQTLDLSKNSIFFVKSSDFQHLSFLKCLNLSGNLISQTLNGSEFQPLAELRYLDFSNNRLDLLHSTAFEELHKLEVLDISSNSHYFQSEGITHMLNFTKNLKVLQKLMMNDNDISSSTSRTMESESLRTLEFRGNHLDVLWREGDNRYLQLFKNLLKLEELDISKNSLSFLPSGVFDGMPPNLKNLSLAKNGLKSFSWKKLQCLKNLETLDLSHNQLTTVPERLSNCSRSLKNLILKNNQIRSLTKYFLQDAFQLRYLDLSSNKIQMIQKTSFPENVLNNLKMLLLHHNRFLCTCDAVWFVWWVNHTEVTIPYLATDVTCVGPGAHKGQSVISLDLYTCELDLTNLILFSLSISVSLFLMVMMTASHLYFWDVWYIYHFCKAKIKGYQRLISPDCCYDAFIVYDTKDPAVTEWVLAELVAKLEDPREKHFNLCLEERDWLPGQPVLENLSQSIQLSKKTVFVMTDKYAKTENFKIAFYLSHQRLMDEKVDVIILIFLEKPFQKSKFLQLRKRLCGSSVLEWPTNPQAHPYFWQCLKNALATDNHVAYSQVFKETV
The data set is described as follows: Activation of TLR7 in human PBMCs incubated for overnight duration followed by compound-treated cell supernatant conditioned media transfer to HCV1b transfected human HuH7-luc/neo replicon cells assessed as induction of INFalpha-mediated suppression of virus growth by firefly-luciferase reporter gene assay. A general note: A replicon is a self-replicating genome or part of one, used to study replication in cells.

In data set [11] the target is Toll-like receptor 4 (Homo sapiens) (UniProt O00206). The data set is described as follows: Agonist activity at wild-type human TLR4 expressed in HEK293 cells up to 25 uM measured after 6 hrs by NF-kappaB luciferase reporter gene assay. The data set is classed as cell-based.
Sequence of Toll-like receptor 4 (Homo sapiens) (O00206 whole entry): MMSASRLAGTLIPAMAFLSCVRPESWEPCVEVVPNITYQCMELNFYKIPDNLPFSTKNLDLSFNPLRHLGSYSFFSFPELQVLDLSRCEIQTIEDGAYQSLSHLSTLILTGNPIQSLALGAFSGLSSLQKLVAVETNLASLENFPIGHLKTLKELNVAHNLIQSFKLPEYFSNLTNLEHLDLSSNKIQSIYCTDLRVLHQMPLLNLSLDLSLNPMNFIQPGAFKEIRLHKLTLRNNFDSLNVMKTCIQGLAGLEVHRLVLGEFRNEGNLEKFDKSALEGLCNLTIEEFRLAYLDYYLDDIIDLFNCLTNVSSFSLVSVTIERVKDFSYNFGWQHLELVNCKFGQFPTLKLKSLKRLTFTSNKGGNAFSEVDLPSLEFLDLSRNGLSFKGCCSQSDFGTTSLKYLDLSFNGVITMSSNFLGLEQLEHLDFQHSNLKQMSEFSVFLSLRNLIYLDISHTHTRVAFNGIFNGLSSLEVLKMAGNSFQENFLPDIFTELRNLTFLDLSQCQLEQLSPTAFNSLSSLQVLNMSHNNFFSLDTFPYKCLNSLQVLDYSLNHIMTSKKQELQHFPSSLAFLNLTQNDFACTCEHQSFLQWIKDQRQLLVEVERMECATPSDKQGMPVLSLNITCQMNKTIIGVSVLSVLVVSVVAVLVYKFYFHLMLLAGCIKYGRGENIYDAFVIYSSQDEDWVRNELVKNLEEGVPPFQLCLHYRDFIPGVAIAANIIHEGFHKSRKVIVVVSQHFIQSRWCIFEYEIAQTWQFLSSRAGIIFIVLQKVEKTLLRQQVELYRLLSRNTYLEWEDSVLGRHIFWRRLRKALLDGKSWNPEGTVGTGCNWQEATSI

Usually Tmax stands for the time from dosing to the highest level. Usually AUC(0-t) stands for the area under the concentration-time curve up to a stated or last time point. One may read the Papp A→B as how fast a substance crosses the layer from the apical side. Regarding `CCCC[C@@H](CCO)Nc1nc(N)ncc1OC`, the LED in data set [1] turned out to be 1.6 µM; in data set [10], 0.5 µM. Moreover, the Fa in [2] stood at 55%. Moreover, the figures for the Tmax in [3], in [4] and in [9] were 1 h, 0.5 to 1 h and 0.5 to 2 h, respectively. Besides, the microsomal CLint at 1 µM in data set [5] amounted to 5 µL/min/mg. This compound also gave a CLH in data set [6] of 20 µL/min. The Cp in data set [7] came to 245 ng/mL. Further, the AUC(0-t) at 24 h in [8] amounted to 11 ng·h/mL. In the data set on human MDR1, the Papp A→B at 1 µM was 23 ×10⁻⁶ cm/s. Also, the outcome in data set [11] was inactive.
